Test results published in patent US20250129045A1, “SMALL MOLECULE PIM AND MTOR KINASE INHIBITOR AND METHODS OF USE THEREOF” (Arizona Board of Regents on Behalf of the University of …, priority 2022, published 2025).
Entries after “also recorded” stand apart in the source; their conditions may differ.

Columns and labels:
mTORC = assay: Phosphorylation of mTORC substrates in PANC1 cells (Western blot); type: cell-based; settings: overnight incubation, FIG. 19
Protocol: (§1) Immunoblotting: Western blots were performed as described previously. Briefly, protein lysates (30 μg) were subjected to SDS-PAGE and transferred to nitrocellulose membranes. After blocking with 5% milk in TBST buffer for 30 min at room temperature, the membranes were incubated overnight at 4° C. with the Indicated primary antibody in 3% BSA in TBST. Specific proteins were detected with the corresponding HRP conjugated secondary antibody using enhanced chemiluminescence (GE Lifesciences, Piscataway, NJ).
(§2) Because of ease of growth, PANC1 pancreatic cancer cells were used to test the activity of derivatives of VBT-5445 (FIG. 14). […] Using a doxycycline inducible Pim kinase vector in these tumor cells, this inhibition of phosphorylation was proportional to the level of Pim in these cells (FIG. 9). […] Inhibition of mTORC1 is known to stimulate the feedback activation of mTORC2 leading to AKT phosphorylation. […] The effect of these compounds on mTORC1 and 2 was still evident in PC3-LN4 cells that contained a knockout (KO) using CRISPR/CAS9 of either TSC2 or DEPDC5 (FIG. 12, lanes 4-9). TSC2 KO activated the Rheb GTPase while DEPDC5 KO activated the RAG GTPase both of which stimulate mTORC1 activity. Thus, GRG compounds were capable of inhibiting mTORC1 activity even when this kinase was highly activated.

[1] = system: PANC1 pancreatic cancer cells; assay: Growth inhibition of PANC1 pancreatic cancer cells; type: cell-based
Protocol: (§3) Cell growth assay: Tumor cells were seeded into 48 well plates (1000 cells/well) and treated with varied agents. The Incucyte real-time imaging system (Incucyte) was used to measure cell proliferation using a non-label cell monolayer confluence approach. The images were captured every 12 h. Graphs were generated using an integrated confluence metric as an alternative for cell numbers. At the end of the study cell growth was visualized by crystal violet staining.
as §2

Acetyl CoA carboxylase = Acetyl CoA carboxylase phosphorylation in LNCaP cells (Western blot); type: cell-based; settings: LNCaP prostate cancer cell line
Protocol: LNCaP cells were treated in a 6 well plate with GRG-1-35 for the indicated times. Cells were scrapped and protein extracts subjected to SDS-PAGE and Western blotted with the antibodies shown.

Pim1 [2] = molecular target: T1, Pim1 (Homo sapiens, UniProt P11309); assay: Surface plasmon resonance (SPR) binding of VBT5445 to Pim1; settings: 500 nM PIM447 vs DMSO
Protocol: (§4) FIGS. 7A-7I show inhibition of VBT5445 (VBT) on Pim1 and EDC3 binding and phosphorylation. FIG. 7A: In vitro co-precipitation (Co-PPT) assay was performed with recombinant EDC3 and biotinylated Pim1 using Streptavidin beads with increasing concentrations of the Pim inhibitor VBT5445 (VBT). FIG. 7B: Kinase assays were performed with recombinant EDC3 and Pim1 with increasing concentrations of VBT. FIG. 7C: Cell lysates from PC3-LN4 cells cultured with DMSO, 10 μM VBT, 3 μM AZD5363 (AKTi) and the combination for 6 hrs were subjected to western blotting (WB). […] WBs were performed using the indicated antibodies. FIG. 7E: PC3-LN4 cells were seeded into 48 well plate and incubated with either DMSO, VBT, AZD5363 or the combination, for 4.5 days. A real-time imaging system (IncuCyte™) was used to measure cell proliferation using a non-label cell monolayer confluence approach. FIG. 7F-7H: GFP image in PC3 LN4 GFP EDC3 expressing cells treated with PIMi: VBT (5 μM) and VBT (5 μM)+AZD5363 (3 μM) for 6 hrs.
A virtual screening effort was mounted to find chemicals that interact outside of ATP binding site of Pim screening over 100,000 compounds followed by testing the top 303 by Surface Plasmon Resonance (SPR). Synthesis of the most likely candidate was achieved by the Arizona Center for Drug Discovery at the University of Arizona. […]

Pim1 [3] = molecular target: T1, Pim1; assay: Kinase assay with purified Pim1 and EDC3 (EDC3 S161 phosphorylation); type: biochemical; settings: concentration of 1 μM
Protocol: as §4
Computer screening followed by surface plasmon resonance (SPR) yielded a lead compound VBT-5445 that can interact with the Pim-1 protein kinase. Enhancer of mRNA Decapping 3 (EDC3) is a substrate of the Pim kinase that regulates the decapping of messenger RNA, and its activity is modulated by Pim mediated phosphorylation. […]

PC3-LN4 cells [4] = assay: Cell growth assay (IncuCyte) in PC3-LN4 prostate cancer cells; type: cell-based, human; settings: for prostate cancer (PC3-LN4) growth, in combination with AKT/PI3K inhibitor: combination with AZD5363 or BKM120
Protocol: as §4, §3

[5] = Tolerability by gavage in mice; type: in vivo; settings: 30 mg/kg by gavage in combination with AZD5363 40 mg/kg
Text: Maximum Tolerated Dose and Side Effect Profile. […] To obtain the maximum tolerated dose (MTD), the dose will be increased by 50% over the previous one at each ensuing treatment consisting of 3 mice given daily for 5 days. Mice will be observed for fur ruffling and behavior changes. Blood will be drawn, and the WBC count and blood chemistry will be determined to evaluate bone marrow, liver, and kidney toxicity. Together with pharmacokinetic profiling, this analysis will help determine the best dose and frequency of administration for this molecule.

PC3-LN4 cells [6] = assay: Western blotting of PC3-LN4 cell lysates; type: cell-based, human
Protocol: as §4, with “FIG.” for “FIGS. 7A-7I show inhibition of VBT5445 (VBT) on Pim1 and EDC3 binding and phosphorylation. FIG.”
Extracts were subjected to Western blotting with the indicated antibodies.
as §1

Pim1 and EDC3 binding = Pim1 and EDC3 binding (Homo sapiens, UniProt P11309); assay: In vitro co-precipitation / co-immunoprecipitation of EDC3 with Pim1; settings: VBT-5445 at concentrations higher than 1 μM
Protocol: as §4

[7] = system: T-cell acute lymphoblastic leukemia cell line DU528; assay: Cell viability (XTT) assay in T-ALL cells; type: cell-based; settings: 72 h
Protocol: Cell viability (XTT) assay: T-ALL cells were seeded into 96 well plates at a density of 20,000 cells per well and treated with VBT-5445 for 72 h, using DMSO as control. Cell viability was measured using XTT cell proliferation assay (Trevigen Cat #4891-025-K) following the manufacturer's protocol. Briefly, XTT reagent was added to cell culture after the treatment and incubated for 4 h at 37° C. and 5% CO2. The absorbance of the colored formazan product was measured at 450 nm.

PC3-LN4 cells [8] = assay: P-body (PB) number in PC3-LN4 GFP-EDC3 cells; type: cell-based, human; settings: 6 h
Protocol: as §4
To measure PB numbers, PC3-LN4 PCa cells containing a CRISPR/Cas total knock-out of EDC3 were stably transduced with GFP-EDC3. When localized in PBs, GFP spots could be quantified. PBs were quantified at the University of Colorado Center for Drug Discovery using an Opera Phenix Plus high content screening system (PerkinElmer) Perkin Elmer G3 robotic system after drug treatment. Assays were carried out in quadruplicate and the mean number of PBs per cell and cell area calculated. An example of this assay is shown using […] buffered saline (HBSS) to induce PB formation.
Immunofluorescence: Immunofluorescence (IF) staining was performed on PC3-LN4 cells stably expressing EDC3-GFP. 1×10^4 cells were seeded in each chamber of an 8 well chamber slide (Nunc Lab-Tek II Chamber Slide System, Life Technologies) and cultured for 48 h. After attaching to the chamber slides cells were treated with DMSO, VB-5445 ([…]), AZD5363 (3 μM), or the combination for 6 h. Cells were then fixed with 4% paraformaldehyde in PBS for 15 min and subsequently permeabilized with 0.2% Triton X-100 in PBS. Cells were stained with diluted DAPI (1:4000) in 1% nor-mal goat serum in PBS. Cells were mounted with Prolong Gold Antifade mounting medium (Molecular Probes).

T1 sequence (P11309 whole entry): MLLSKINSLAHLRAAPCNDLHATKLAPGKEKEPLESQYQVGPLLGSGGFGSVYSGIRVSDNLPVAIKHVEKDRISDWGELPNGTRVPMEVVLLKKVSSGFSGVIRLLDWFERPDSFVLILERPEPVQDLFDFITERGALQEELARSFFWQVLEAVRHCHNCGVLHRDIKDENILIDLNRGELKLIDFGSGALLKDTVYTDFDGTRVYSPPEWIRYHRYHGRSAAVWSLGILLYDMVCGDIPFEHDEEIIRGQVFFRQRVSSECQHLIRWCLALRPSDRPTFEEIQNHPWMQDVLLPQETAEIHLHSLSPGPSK
Chain of Pim1 and EDC3 binding (P11309 whole entry): as above

O=c1c(CNCc2cc(Cl)ccn2)cc2ccc(Cl)cc2n1CCOc1ccccc1 [GRG-1-35]
block of phosphorylation of mTORC substrates (AKT, 4E-BP1, S6) (mTORC): block the phosphorylation of mTORC substrates | growth inhibitory activity against PANC1 pancreatic cancer cells [1]: most active | phosphorylation of acetyl CoA carboxylase (Acetyl CoA carboxylase): Induction; also recorded: increased the phosphorylation of acetyl CoA carboxylase

O=c1c(CNCc2cccnc2)cc2ccc(Cl)cc2n1CCOc1ccccc1 [VBT5445]
increase of binding to Pim1 when PIM447 was added and bound to the ATP site (Pim1 [2]): 3 fold | inhibition of EDC3 serine 161 phosphorylation by Pim1 (Pim1 [3]): inhibited EDC3 phosphorylation | prostate cancer (PC3-LN4) growth, in combination with AKT/PI3K inhibitor (PC3-LN4 cells [4]): more active in inhibiting cancer growth | prostate cancer (PC3-LN4) growth, in combination with AKT/PI3K inhibitor (PC3-LN4 cells [4]; listed as VBT): markedly inhibits the growth | growth in culture of PC3-LN4 cells (PC3-LN4 cells [4]; compound alone): markedly inhibits the growth | weight loss or behavior changes [5]: without any weight loss or behavior changes | ITGB1 protein level, combination with AZD5363 (AKTi) (PC3-LN4 cells [6]): reduced | cellular level of Pim kinases (PC3-LN4 cells [6]): decreases the level of all Pim kinases | cellular level of c-Myc protein (PC3-LN4 cells [6]): decrease | mTORC1 activity: phosphorylation of the S6 protein (PC3-LN4 cells [6]): blocked mTORC1 activity | co-immunoprecipitation of EDC3 with Pim (Pim1 and EDC3 binding): blocked the ability of Pim1 to coimmunoprecipitate with EDC3 | growth of T-acute lymphoblastic leukemia cells [7]: inhibited the growth | number of P-bodies, with AKT inhibitor AZD5363 added (PC3-LN4 cells [8]; combination with AZD5363 (3 μM)): further increased these numbers; also recorded: further increase P-body formation | number of P-bodies (PC3-LN4 cells [8]; compound alone): increased PB numbers; also recorded: induces increased numbers of P-bodies
